Experimental data from paper PMC9306949 (Clinical Pharmacology in Drug Development, 2022).
Entries after “also recorded” stand apart in the source; their conditions may differ. Where two headings read alike, the source gives them in different places. Marks after values point to notes of the source that are not given here.

Legend:
[1] = format: in vivo, human; conditions: for M/P (AUC0‐t), metabolite-to-parent ratio / AUC0‐24 / AUC0‐inf / AUC0‐t / C24 / Cmax: mean (%CV); for t1/2 / AUC0‐24 / AUC0‐inf / AUC0‐t / C24 / Cmax / tmax: plasma; for t1/2: arithmetic mean (%CV); for tmax: median (min-max)
[2] = Urine excretion of navtemadlin and M1; format: in vivo, human
[3] = cited from earlier work
[4] = cited from earlier work; remark: listed apart in the source
[5] = Treatment A (reference): new tablet fasted, drug-load analysis
[6] = Treatment A (reference): new tablet fasted, food-effect analysis
[7] = Treatment B (test 1): new tablet fed, food-effect analysis
[8] = Treatment B: 60-mg new tablet, fed (high-fat meal)
[9] = Treatment C (test 2): old tablet fasted, drug-load analysis
[10] = Treatment C: 60-mg old tablet, fasted
[11] = Treatment A: 60-mg new tablet, fasted
[12] = test/reference: B (new tablet fed) vs A (new tablet fasted)
[13] = test/reference: C (old tablet fasted) vs A (new tablet fasted)
[14] = period 1 (old tablet fasted), 0-48 h urine
[15] = patients with solid tumors or multiple myeloma

CC(C)[C@@H](CS(=O)(=O)C(C)C)N1C(=O)[C@@](C)(CC(=O)O[C@@H]2O[C@H](C(=O)O)[C@@H](O)[C@H](O)[C@H]2O)C[C@H](c2cccc(Cl)c2)[C@H]1c1ccc(Cl)cc1 [M1, navtemadlin acyl glucuronide]
tmax, median ([1]; Treatment A (reference): new tablet fasted, average of 2, drug-load analysis): 2.5 ^d h
tmax, median ([1]; Treatment A (reference): new tablet fasted, average of 2, food-effect analysis): 2.5 ^d h
AUC0‐24, GLSM [1, 5]: 528, N = 30 ng • h/mL
AUC0‐inf, GLSM [1, 5]: 701, N = 28 ng • h/mL
AUC0‐t, GLSM [1, 5]: 646, N = 30 ng • h/mL
Cmax, GLSM [1, 5]: 98, N = 30 ng/mL
AUC0‐24, GLSM [1, 6]: 528, N = 30 ng • h/mL
AUC0‐inf, GLSM [1, 6]: 710, N = 28 ng • h/mL
AUC0‐t, GLSM [1, 6]: 646, N = 30 ng • h/mL
Cmax, GLSM [1, 6]: 98, N = 30 ng/mL
exposure in UGT1A1*28 heterozygous poor metabolizers (6/7 TA repeats) vs WT (6/6 TA repeats) ([1]; Treatment A, n = 16 vs n = 12): generally comparable
AUC0‐24, GLSM [1, 7]: 465, N = 30 ng • h/mL
AUC0‐inf, GLSM [1, 7]: 610, N = 22 ng • h/mL
AUC0‐t, GLSM [1, 7]: 555, N = 30 ng • h/mL
Cmax, GLSM [1, 7]: 117, N = 30 ng/mL
tmax, median [1, 7]: 3.0 ^d h
M/P (AUC0‐t), metabolite-to-parent ratio [1, 8]: 0.2 (38.3); 30
AUC0‐24, GLSM [1, 9]: 506, N = 30 ng • h/mL
AUC0‐inf, GLSM [1, 9]: 643, N = 26 ng • h/mL
AUC0‐t, GLSM [1, 9]: 585, N = 30 ng • h/mL
Cmax, GLSM [1, 9]: 84, N = 30 ng/mL
tmax, median [1, 9]: 2.0 ^d h
M/P (AUC0‐t), metabolite-to-parent ratio [1, 10]: 0.2 (34.3); 30
acyl glucuronide to parent drug AUC0‐t ratio ([1]; after correction for molecular weight, across study groups): ≈ 0.2
time of second peak after dosing (enterohepatic recirculation) ([1]; all 3 treatments): around 10 hours
PK in H. pylori–positive vs H. pylori–negative subjects ([1]; n = 12 positive vs n = 18 negative): not markedly affected
decrease in extent of exposure (AUC0‐24, AUC0‐t, AUC0‐inf) with a high‐fat meal ([1]; new tablet fed vs fasted): 12% to 18%
increase in Cmax with a high‐fat meal ([1]; new tablet fed vs fasted): ≈ 18%; also recorded: ≈ 20%
difference in median tmax between fed and fasted conditions, significance ([1]; new tablet, Wilcoxon signed-rank, alpha level of 0.1): not significant
t1/2 [1, 11]: 16.2 (57.8); 46 h
AUC0‐24 [1, 11]: 607 (60.9); 60 ng • h/mL
AUC0‐inf [1, 11]: 849 (74.1); 46 ng • h/mL
AUC0‐t [1, 11]: 782 (72.2); 60 ng • h/mL
C24 [1, 11]: 7.82 (97.4); 60 ng/mL
Cmax [1, 11]: 118 (70.0); 60 ng/mL
tmax [1, 11]: 2.02 (1.00 – 6.00); 60 h
AUC0‐24 [1, 8]: 532 (56.0); 30 ng • h/mL
AUC0‐inf [1, 8]: 824 (61.1); 22 ng • h/mL
AUC0‐t [1, 8]: 666 (65.8); 30 ng • h/mL
C24 [1, 8]: 5.96 (87.8); 30 ng/mL
Cmax [1, 8]: 133 (52.6); 30 ng/mL
tmax [1, 8]: 3.00 (0.99 ‐ 4.02); 30 h
t1/2 [1, 10]: 13.7 (68.5); 26 h
AUC0‐24 [1, 10]: 609 (68.6); 30 ng • h/mL
AUC0‐inf [1, 10]: 794 (71.6); 26 ng • h/mL
AUC0‐t [1, 10]: 740 (77.5); 30 ng • h/mL
C24 [1, 10]: 7.04 (109.6); 30 ng/mL
Cmax [1, 10]: 101 (65.3); 30 ng/mL
tmax [1, 10]: 2.01 (1.00 – 6.00); 30 h
tmax, difference of medians (90%CI) ([1]; test-reference: B (new tablet fed) minus A (new tablet fasted)): 0.4 (‐0.002‐0.8) ^e , ^g h
tmax, difference of medians (90%CI) ([1]; test-reference: C (old tablet fasted) minus A (new tablet fasted)): 0.1 (–0.3 to 0.6) ^e , ^g h
AUC0‐24, % ratio of least squares means (90%CI) [1, 12]: 88.2 (82.2‐94.6) %
AUC0‐inf, % ratio of least squares means (90%CI) [1, 12]: 86.0 (77.5‐95.4) %
AUC0‐t, % ratio of least squares means (90%CI) [1, 12]: 85.9 (79.9‐92.3) %
Cmax, % ratio of least squares means (90%CI) [1, 12]: 118.7%
AUC0‐24, % ratio of least squares means (90%CI) [1, 13]: 95.8 (89.4‐102.7) %
AUC0‐inf, % ratio of least squares means (90%CI) [1, 13]: 91.8 (85.3 to 98.6) %
AUC0‐t, % ratio of least squares means (90%CI) [1, 13]: 90.6 (84.2 to 97.6) %
Cmax, % ratio of least squares means (90%CI) [1, 13]: 85.7 (77.9‐94.2) %
mean amount excreted in urine [2, 14]: 17.3 µg
mean fraction of dose excreted in urine [2, 14]: 0.02%
urine excretion ([2]; single 60-mg dose, healthy subjects): negligible
mean accumulation ([3]; 7‐day once‐daily dosing period, patients): < 2 fold
mean (SD) terminal half‐life (t1/2) [3, 15]: 14.0 (6.07) hours
mean metabolite‐to‐parent 24‐hour AUC ratio [3, 15]: 0.461
mean tmax [3, 15]: 2 to 4 h
share of excreted biliary radioactivity ([4]; rat bile): accounts for most of the excreted biliary radioactivity
presence in feces ([4]; rat feces, hydrolysis in the intestine): not present in rat feces
